Assay results: patent US8802597B2, “Herbicidal pyrimidines” (E I du Pont de Nemours and Company, priority 2003, dated 2014)

Experiments:
Type in all cases: in vivo
[1] = system: velvetleaf (Abutilon theophrasti); experiment: Test A pre/postemergence
How it was run: (§1)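 Seeds sown in loam–sand blend received a preemergence directed soil spray of test chemical in non-phytotoxic solvent with surfactant; same-formulation postemergence spray given concurrently to plants 2–10 cm tall at 1- to 2-leaf stage. Greenhouse ~ten days, then visual injury rating versus untreated controls, 0 (no effect) to 100 (complete control).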

[2] = system: giant foxtail (Setaria faberi); experiment: Test A pre/postemergence
How it was run: as §1

[3] = system: redroot pigweed (Amaranthus retroflexus); experiment: Test A pre/postemergence
How it was run: as §1

[4] = system: barnyardgrass (Echinochloa crus-galli); experiment: Test A pre/postemergence
How it was run: as §1

[5] = system: morningglory (Ipomoea spp.); experiment: Test A pre/postemergence
How it was run: as §1

[6] = system: crabgrass (Digitaria sanguinalis); experiment: Test A pre/postemergence
How it was run: as §1

[7] = system: transplanted rice seedlings (Oryza sativa cv. ‘Japonica-M202’); experiment: Test E flooded paddy water application; details: Flood, 21 days, scale 0 to 100 (0 no effect, 100 complete control)
From the text: (§2) Three plastic pots (ca. 16-cm diameter) per rate were partially filled with sterilized Tama silt loam soil comprising a 35:50:15 ratio of sand, silt and clay and 2.6% organic matter. Separate plantings for each of the three pots were as follows. Seeds from the U.S. of ducksalad (Heteranthera limosa), smallflower umbrella sedge (Cyperus difformis) and purple redstem (Ammannia coccinea), were planted into one 16-cm pot for each rate. Seeds from the U.S. of rice flatsedge (Cyperus iria), bearded (brdd.) sprangletop (Leptochloa fusca ssp. fascicularis), one stand of 9 or 10 water seeded rice seedlings (Oryza sativa cv. ‘Japonica-M202’), and one stand of 6 transplanted rice seedlings (Oryza sativa cv. ‘Japonica-M202’) were planted into one 16-cm pot for each rate. Seeds from the U.S. of barnyardgrass (Echinochloa crus-galli), late watergrass (Echinochloa oryzicola), early watergrass (Echinochloa oryzoides) and junglerice (Echinochloa colona) were planted into one 16-cm pot for each rate. Plantings were sequential so that crop and weed species were at the 2.0 to 2.5-leaf stage at time of treatment.
(§3) Potted plants were grown in a greenhouse with day/night temperature settings of 29.5/26.7° C., and supplemental balanced lighting was provided to maintain a 16-hour photoperiod. Test pots were maintained in the greenhouse until test completion.
(§4) At time of treatment, test pots were flooded to 3 cm above the soil surface, treated by application of test compounds directly to the paddy water, and then maintained at that water depth for the duration of the test. Effects of treatments on rice and weeds were visually evaluated by comparison to untreated controls after 21 days. Plant response ratings, summarized in Table E, are based on a scale of 0 to 100 where 0 is no effect and 100 is complete control. A dash (-) response means no test result.

[8] = system: water seeded rice seedlings (Oryza sativa cv. ‘Japonica-M202’); experiment: Test E flooded paddy water application; details: Flood, 21 days, scale 0 to 100 (0 no effect, 100 complete control)
From the text: as §2, §3, §4

[9] = system: early watergrass (Echinochloa oryzoides); experiment: Test E flooded paddy water application; details: Flood, 21 days, scale 0 to 100 (0 no effect, 100 complete control)
From the text: as §2, §3, §4

[10] = system: rice flatsedge (Cyperus iria); experiment: Test E flooded paddy water application; details: Flood, 21 days, scale 0 to 100 (0 no effect, 100 complete control)
From the text: as §2, §3, §4

[11] = system: barnyardgrass (Echinochloa crus-galli); experiment: Test E flooded paddy water application; details: Flood, 21 days, scale 0 to 100 (0 no effect, 100 complete control)
From the text: as §2, §3, §4

[12] = system: junglerice (Echinochloa colona); experiment: Test E flooded paddy water application; details: Flood, 21 days, scale 0 to 100 (0 no effect, 100 complete control)
From the text: as §2, §3, §4

[13] = system: smallflower umbrella sedge (Cyperus difformis); experiment: Test E flooded paddy water application; details: Flood, 21 days, scale 0 to 100 (0 no effect, 100 complete control)
From the text: as §2, §3, §4

[14] = system: purple redstem (Ammannia coccinea); experiment: Test E flooded paddy water application; details: Flood, 21 days, scale 0 to 100 (0 no effect, 100 complete control)
From the text: as §2, §3, §4

[15] = system: ducksalad (Heteranthera limosa); experiment: Test E flooded paddy water application; details: Flood, 21 days, scale 0 to 100 (0 no effect, 100 complete control)
From the text: as §2, §3, §4

[16] = system: late watergrass (Echinochloa oryzicola); experiment: Test E flooded paddy water application; details: Flood, 21 days, scale 0 to 100 (0 no effect, 100 complete control)
From the text: as §2, §3, §4

[17] = system: bearded (brdd.) sprangletop (Leptochloa fusca ssp. fascicularis); experiment: Test E flooded paddy water application; details: Flood, 21 days, scale 0 to 100 (0 no effect, 100 complete control)
From the text: as §2, §3, §4

[18] = Postemergence, 125 g ai/ha, 0 to 100 scale (0 no effect, 100 complete control)
[19] = Postemergence, 500 g ai/ha, 0 to 100 scale (0 no effect, 100 complete control)
[20] = Preemergence, 125 g ai/ha, 0 to 100 scale where 0 is no effect and 100 is complete control, approximately ten days
[21] = Preemergence, 500 g ai/ha, 0 to 100 scale where 0 is no effect and 100 is complete control, approximately ten days

CCOC(=O)c1nc(-c2ccc(Cl)cc2Cl)nc(N)c1Br [Compound 67]
70: Sedge, Umbrella plant response rating ([13]; 250 g ai/ha)
75: Plant response rating, Velvetleaf [1, 19] | Plant response rating, Pigweed [3, 21]
85: Redstem plant response rating ([14]; 250 g ai/ha) | Plant response rating, Ducksalad ([15]; 16 g ai/ha)
50: Plant response rating, Morningglory [5, 18]
10: Plant response rating, Velvetleaf [1, 20] | Plant response rating, Pigweed [3, 20]
30: Plant response rating, Foxtail, Giant [2, 21] | Plant response rating, Crabgrass [6, 21] | Flatsedge, Rice plant response rating ([10]; 64 g ai/ha) | Junglerice plant response rating ([12]; 125 g ai/ha) | Sprangletop, Brdd. plant response rating ([17]; 125 g ai/ha) | Sprangletop, Brdd. plant response rating ([17]; 250 g ai/ha)
65: Plant response rating, Velvetleaf [1, 18] | Junglerice plant response rating ([12]; 250 g ai/ha)
40: Plant response rating, Velvetleaf [1, 21] | Barnyardgrass plant response rating ([11]; 125 g ai/ha) | Barnyardgrass plant response rating ([11]; 250 g ai/ha) | Sedge, Umbrella plant response rating ([13]; 125 g ai/ha)
100: Ducksalad plant response rating ([15]; 32 g ai/ha) | Ducksalad plant response rating ([15]; 64 g ai/ha) | Ducksalad plant response rating ([15]; 125 g ai/ha) | Ducksalad plant response rating ([15]; 250 g ai/ha)
5: Plant response rating, Crabgrass [6, 18] | Plant response rating, Crabgrass [6, 19]
90: Plant response rating, Pigweed [3, 18] | Plant response rating, Pigweed [3, 19]
0: Plant response rating, Foxtail, Giant [2, 18] | Plant response rating, Foxtail, Giant [2, 19] | Plant response rating, Foxtail, Giant [2, 20] | Plant response rating, Barnyardgrass [4, 18] | Plant response rating, Barnyardgrass [4, 19] | Plant response rating, Barnyardgrass [4, 20] | Plant response rating, Barnyardgrass [4, 21] | Plant response rating, Morningglory [5, 20] | Plant response rating, Morningglory [5, 21] | Plant response rating, Crabgrass [6, 20] | Rice, Transplanted plant response rating ([7]; 32 g ai/ha) | Rice, Transplanted plant response rating ([7]; 64 g ai/ha) | Rice, Transplanted plant response rating ([7]; 125 g ai/ha) | Rice, Transplanted plant response rating ([7]; 250 g ai/ha) | Plant response rating, Rice, Transplanted ([7]; 16 g ai/ha) | Rice, Water Seeded plant response rating ([8]; 32 g ai/ha) | Rice, Water Seeded plant response rating ([8]; 64 g ai/ha) | Rice, Water Seeded plant response rating ([8]; 125 g ai/ha) | Rice, Water Seeded plant response rating ([8]; 250 g ai/ha) | Plant response rating, Rice, Water Seeded ([8]; 16 g ai/ha) | Watergrass, Early plant response rating ([9]; 32 g ai/ha) | Watergrass, Early plant response rating ([9]; 64 g ai/ha) | Watergrass, Early plant response rating ([9]; 125 g ai/ha) | Watergrass, Early plant response rating ([9]; 250 g ai/ha) | Plant response rating, Watergrass, Early ([9]; 16 g ai/ha) | Flatsedge, Rice plant response rating ([10]; 32 g ai/ha) | Plant response rating, Flatsedge, Rice ([10]; 16 g ai/ha) | Barnyardgrass plant response rating ([11]; 32 g ai/ha) | Barnyardgrass plant response rating ([11]; 64 g ai/ha) | Plant response rating, Barnyardgrass ([11]; 16 g ai/ha) | Junglerice plant response rating ([12]; 32 g ai/ha) | Junglerice plant response rating ([12]; 64 g ai/ha) | Plant response rating, Junglerice ([12]; 16 g ai/ha) | Sedge, Umbrella plant response rating ([13]; 32 g ai/ha) | Sedge, Umbrella plant response rating ([13]; 64 g ai/ha) | Plant response rating, Sedge, Umbrella ([13]; 16 g ai/ha) | Redstem plant response rating ([14]; 32 g ai/ha) | Redstem plant response rating ([14]; 64 g ai/ha) | Redstem plant response rating ([14]; 125 g ai/ha) | Plant response rating, Redstem ([14]; 16 g ai/ha) | Watergrass, Late plant response rating ([16]; 32 g ai/ha) | Watergrass, Late plant response rating ([16]; 64 g ai/ha) | Watergrass, Late plant response rating ([16]; 125 g ai/ha) | Watergrass, Late plant response rating ([16]; 250 g ai/ha) | Plant response rating, Watergrass, Late ([16]; 16 g ai/ha) | Sprangletop, Brdd. plant response rating ([17]; 32 g ai/ha) | Sprangletop, Brdd. plant response rating ([17]; 64 g ai/ha) | Plant response rating, Sprangletop, Brdd. ([17]; 16 g ai/ha)
60: Plant response rating, Morningglory [5, 19] | Flatsedge, Rice plant response rating ([10]; 125 g ai/ha) | Flatsedge, Rice plant response rating ([10]; 250 g ai/ha)
